The results in this text go back to patent US9365572B2, “PI3K and/or mTOR inhibitor” (XUANZHU PHARMA CO., LTD., priority 2012, dated 2016).

The structures appear in SMILES notation. Bounds are passed on as bounds.

Assay [1] deals with Epidermal Growth Factor (EGF) (Homo sapiens (Human), UniProt P00533). The assay can be described thus: Radioligand binding assay No. 225510. To be noted: test substance 10 μM, read-out: Inhibitory rate (%), Epidermal Growth Factor (EGF).
The target of another assay is Cannabinoid CB1 (Homo sapiens (Human), UniProt P21554). The assay can be described thus: Radioligand binding assay No. 217030. To be noted: test substance 10 μM, read-out: Inhibitory rate (%), Cannabinoid CB1.
Assay [2] concerns the target Transporter, Dopamine (DAT) (Homo sapiens (Human), UniProt Q01959). The assay can be described thus: Radioligand binding assay No. 220320. To be noted: test substance 10 μM, read-out: Inhibitory rate (%), Transporter, Dopamine (DAT).
In the next assay the target is Muscarinic M3 (Homo sapiens (Human), UniProt P20309). Kind of assay: Radioligand binding assay No. 252810. To be noted: test substance 10 μM, read-out: Inhibitory rate (%), Muscarinic M3.
The target in a further assay is Bradykinin B2 (Homo sapiens (Human), UniProt P30411). Kind of assay: Radioligand binding assay No. 212620. To be noted: test substance 10 μM, read-out: Inhibitory rate (%), Bradykinin B2.
Bradykinin B2, sequence (P30411 whole entry): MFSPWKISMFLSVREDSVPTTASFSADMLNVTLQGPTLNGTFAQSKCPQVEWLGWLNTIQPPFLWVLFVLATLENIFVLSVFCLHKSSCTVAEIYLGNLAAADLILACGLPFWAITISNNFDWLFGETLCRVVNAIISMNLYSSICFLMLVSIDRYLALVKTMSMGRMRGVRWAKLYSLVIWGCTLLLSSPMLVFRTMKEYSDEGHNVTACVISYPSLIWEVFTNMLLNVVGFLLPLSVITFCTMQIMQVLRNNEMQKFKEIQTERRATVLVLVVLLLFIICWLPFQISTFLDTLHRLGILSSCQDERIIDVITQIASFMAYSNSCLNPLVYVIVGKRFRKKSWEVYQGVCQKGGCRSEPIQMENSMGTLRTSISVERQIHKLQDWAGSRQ
The next assay concerns the target BRAF V600E (Homo sapiens (Human), UniProt P15056, V600E). The assay can be described thus: Kinase selectivity, Lanthascreen analysis method. Type of assay: biochemical. On the technique in general: Time-resolved FRET reads energy transfer from a long-lived donor to a nearby acceptor.
A further assay deals with Glucocorticoid (Homo sapiens (Human), UniProt P04150). The assay can be described thus: Radioligand binding assay No. 232030. The following applies: test substance 10 μM, read-out: Inhibitory rate (%), Glucocorticoid.
In the next assay the target is Interleukin IL-1 (Mus musculus (Mouse), UniProt P13504). The assay can be described thus: Radioligand binding assay No. 243520. The following applies: test substance 10 μM, read-out: Inhibitory rate (%), Interleukin IL-1.
Interleukin IL-1, sequence (P13504 20-576): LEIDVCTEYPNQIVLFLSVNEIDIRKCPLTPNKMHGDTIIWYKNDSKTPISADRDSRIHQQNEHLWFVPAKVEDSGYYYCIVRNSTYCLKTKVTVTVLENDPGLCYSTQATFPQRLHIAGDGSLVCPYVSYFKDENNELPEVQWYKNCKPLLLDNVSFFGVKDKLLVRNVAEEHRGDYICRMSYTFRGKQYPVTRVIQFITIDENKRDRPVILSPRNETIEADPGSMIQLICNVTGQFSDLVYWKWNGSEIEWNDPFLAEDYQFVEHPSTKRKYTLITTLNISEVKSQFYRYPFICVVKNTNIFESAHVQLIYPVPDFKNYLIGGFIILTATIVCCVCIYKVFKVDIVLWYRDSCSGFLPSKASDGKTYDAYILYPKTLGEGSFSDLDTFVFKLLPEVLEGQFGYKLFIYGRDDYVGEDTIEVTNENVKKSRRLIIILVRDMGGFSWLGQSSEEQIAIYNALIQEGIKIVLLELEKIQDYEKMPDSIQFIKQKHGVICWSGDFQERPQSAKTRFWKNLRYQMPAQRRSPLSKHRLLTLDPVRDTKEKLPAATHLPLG
Assay [3] concerns kinases listed in Table 3. Kind of assay: Kinase selectivity, whole panel of Table 3. To be noted: summary in words. In kind it is biochemical. Here is the method: Object: In this assay, the inhibitory activity of the test substance on the kinases listed in Table 3 was determined, and therefore the selectivity of the present compound was determined.
Except for the BRAF V600E kinase in Table 3, the Mobility shift assay was used for other kinases.
• 1.1 1-fold kinase buffer without MnCl2: 50 mM HEPES, pH 7.5, 0.0015% Brij-35, 10 mM MgCl2, 2 mM DTT. • 1.2 1-fold kinase buffer with MnCl2: 50 mM HEPES, pH 7.5, 0.0015% Brij-35, 10 mM MgCl2, 10 mM MnCl2, 2 mM DTT. • 1.3 Termination solution: 100 mM HEPES, pH 7.5, 0.0015% Brij-35, 0.2% Coating Reagent#3, 50 mM EDTA. • 1.4 2.5-fold kinase solution: The kinase was added to the 1-fold kinase buffer to form a 2.5-fold kinase solution. • 1.5 2.5-fold substrate solution: FAM fluorescence-labelled polypeptide and ATP were added to the 1-fold kinase buffer to form a 2.5-fold substrate solution. 2. Preparation of 5-fold compound
The final test concentration of the compound was 10 μM at maximum. Firstly, a 50-fold concentration (i.e. 500 μM) was prepared with 100% DMSO. The compound was diluted with 100% DMSO by 5 folds at 5 concentrations (successively 500 μM, 100 μM, 20 μM, 4 μM, and 0.8 μM). […]
• 3.1 To the 384-well reaction plate was added 5-fold compound dissolved in 10% DMSO at 5 μl/well. • 3.2 To the 384-well reaction plate was added 2.5-fold kinase solution at 10 μl/well. […] The conversion was read from Caliper. […]

The target of a further assay is Neuropeptide Y Y2 (Homo sapiens (Human), UniProt P49146). The assay can be described thus: Radioligand binding assay No. 257110. The following applies: test substance 10 μM, read-out: Inhibitory rate (%), Neuropeptide Y Y2.
Neuropeptide Y Y2, sequence (P49146 whole entry): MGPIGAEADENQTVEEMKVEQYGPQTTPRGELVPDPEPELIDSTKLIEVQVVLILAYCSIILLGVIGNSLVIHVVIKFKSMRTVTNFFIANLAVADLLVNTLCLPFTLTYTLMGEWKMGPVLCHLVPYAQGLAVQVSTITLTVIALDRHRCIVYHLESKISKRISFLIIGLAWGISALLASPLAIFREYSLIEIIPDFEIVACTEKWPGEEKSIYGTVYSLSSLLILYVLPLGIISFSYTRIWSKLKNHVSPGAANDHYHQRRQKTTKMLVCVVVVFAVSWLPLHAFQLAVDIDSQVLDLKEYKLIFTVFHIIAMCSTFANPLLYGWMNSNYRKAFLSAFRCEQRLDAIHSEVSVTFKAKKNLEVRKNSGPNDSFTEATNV
A further assay addresses Opiate μ(OP3, MOP) (Homo sapiens (Human), UniProt P35372). Kind of assay: Radioligand binding assay No. 260410. To be noted: test substance 10 μM, read-out: Inhibitory rate (%), Opiate μ(OP3, MOP).
The target in another assay is Neuropeptide Y Y1 (Homo sapiens (Human), UniProt P25929). Kind of assay: Radioligand binding assay No. 257010. To be noted: test substance 10 μM, read-out: Inhibitory rate (%), Neuropeptide Y Y1.
Neuropeptide Y Y1, sequence (P25929 whole entry): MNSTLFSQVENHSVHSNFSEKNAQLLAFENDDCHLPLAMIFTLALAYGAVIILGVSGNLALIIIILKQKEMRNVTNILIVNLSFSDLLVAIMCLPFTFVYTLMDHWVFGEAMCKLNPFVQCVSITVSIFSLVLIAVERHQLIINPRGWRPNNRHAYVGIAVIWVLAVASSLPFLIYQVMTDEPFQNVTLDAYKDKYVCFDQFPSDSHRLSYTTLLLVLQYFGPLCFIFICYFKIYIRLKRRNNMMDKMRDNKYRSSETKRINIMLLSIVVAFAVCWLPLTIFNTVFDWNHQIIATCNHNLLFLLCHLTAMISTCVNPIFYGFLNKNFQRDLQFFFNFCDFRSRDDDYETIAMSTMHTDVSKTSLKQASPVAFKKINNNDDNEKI
The target of assay [4] is Transporter, Norepinephrine (NET) (Homo sapiens (Human), UniProt P23975). Kind of assay: Radioligand binding assay No. 204410. The following applies: test substance 10 μM, read-out: Inhibitory rate (%), Transporter, Norepinephrine (NET).
Transporter, Norepinephrine (NET), sequence (P23975 whole entry): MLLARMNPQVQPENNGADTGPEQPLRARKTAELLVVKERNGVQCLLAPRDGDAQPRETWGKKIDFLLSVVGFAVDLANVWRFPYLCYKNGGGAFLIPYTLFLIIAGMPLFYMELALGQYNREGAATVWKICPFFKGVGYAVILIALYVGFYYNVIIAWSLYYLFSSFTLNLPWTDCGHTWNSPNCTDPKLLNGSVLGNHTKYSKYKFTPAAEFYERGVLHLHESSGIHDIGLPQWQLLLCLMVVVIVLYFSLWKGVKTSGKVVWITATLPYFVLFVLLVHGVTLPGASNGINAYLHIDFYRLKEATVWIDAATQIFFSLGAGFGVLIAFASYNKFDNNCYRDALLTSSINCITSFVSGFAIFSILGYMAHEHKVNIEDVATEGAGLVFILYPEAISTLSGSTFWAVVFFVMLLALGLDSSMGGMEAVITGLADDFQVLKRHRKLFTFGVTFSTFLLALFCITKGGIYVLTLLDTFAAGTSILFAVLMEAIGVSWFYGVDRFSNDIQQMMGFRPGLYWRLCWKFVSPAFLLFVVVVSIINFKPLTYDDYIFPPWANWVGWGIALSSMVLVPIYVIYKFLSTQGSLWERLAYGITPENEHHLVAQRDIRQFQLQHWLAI

BRAF V600E, sequence (P15056 whole entry V600E): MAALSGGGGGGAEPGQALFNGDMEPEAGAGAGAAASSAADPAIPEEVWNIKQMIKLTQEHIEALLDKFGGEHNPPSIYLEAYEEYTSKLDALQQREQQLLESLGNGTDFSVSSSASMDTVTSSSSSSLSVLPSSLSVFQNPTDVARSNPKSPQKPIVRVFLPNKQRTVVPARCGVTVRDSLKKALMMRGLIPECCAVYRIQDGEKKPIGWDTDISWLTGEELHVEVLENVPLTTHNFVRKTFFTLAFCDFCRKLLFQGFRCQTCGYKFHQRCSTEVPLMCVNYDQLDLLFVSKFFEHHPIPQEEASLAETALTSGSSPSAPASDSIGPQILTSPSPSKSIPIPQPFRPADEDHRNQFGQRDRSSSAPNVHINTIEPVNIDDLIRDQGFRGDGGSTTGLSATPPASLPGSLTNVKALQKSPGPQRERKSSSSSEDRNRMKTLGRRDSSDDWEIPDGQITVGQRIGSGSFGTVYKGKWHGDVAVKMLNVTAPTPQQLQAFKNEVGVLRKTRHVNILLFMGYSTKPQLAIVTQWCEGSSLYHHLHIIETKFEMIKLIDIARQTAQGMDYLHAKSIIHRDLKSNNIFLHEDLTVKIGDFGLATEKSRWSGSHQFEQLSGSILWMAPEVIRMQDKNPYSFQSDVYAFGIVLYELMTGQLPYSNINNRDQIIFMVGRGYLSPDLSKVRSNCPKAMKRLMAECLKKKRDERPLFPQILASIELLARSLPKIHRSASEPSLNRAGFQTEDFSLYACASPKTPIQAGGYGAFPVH
Opiate μ(OP3, MOP), sequence (P35372 whole entry): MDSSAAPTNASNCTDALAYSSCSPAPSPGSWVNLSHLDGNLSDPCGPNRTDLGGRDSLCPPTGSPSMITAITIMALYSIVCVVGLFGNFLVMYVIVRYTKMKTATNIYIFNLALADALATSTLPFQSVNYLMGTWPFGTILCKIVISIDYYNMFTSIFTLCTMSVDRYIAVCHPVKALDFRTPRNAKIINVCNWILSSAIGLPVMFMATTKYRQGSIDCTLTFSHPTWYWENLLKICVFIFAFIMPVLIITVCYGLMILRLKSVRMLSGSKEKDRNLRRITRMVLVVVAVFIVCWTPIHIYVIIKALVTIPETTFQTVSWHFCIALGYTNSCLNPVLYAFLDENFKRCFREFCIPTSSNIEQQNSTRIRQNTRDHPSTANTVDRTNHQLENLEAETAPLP
Epidermal Growth Factor (EGF), sequence (P00533 25-1210): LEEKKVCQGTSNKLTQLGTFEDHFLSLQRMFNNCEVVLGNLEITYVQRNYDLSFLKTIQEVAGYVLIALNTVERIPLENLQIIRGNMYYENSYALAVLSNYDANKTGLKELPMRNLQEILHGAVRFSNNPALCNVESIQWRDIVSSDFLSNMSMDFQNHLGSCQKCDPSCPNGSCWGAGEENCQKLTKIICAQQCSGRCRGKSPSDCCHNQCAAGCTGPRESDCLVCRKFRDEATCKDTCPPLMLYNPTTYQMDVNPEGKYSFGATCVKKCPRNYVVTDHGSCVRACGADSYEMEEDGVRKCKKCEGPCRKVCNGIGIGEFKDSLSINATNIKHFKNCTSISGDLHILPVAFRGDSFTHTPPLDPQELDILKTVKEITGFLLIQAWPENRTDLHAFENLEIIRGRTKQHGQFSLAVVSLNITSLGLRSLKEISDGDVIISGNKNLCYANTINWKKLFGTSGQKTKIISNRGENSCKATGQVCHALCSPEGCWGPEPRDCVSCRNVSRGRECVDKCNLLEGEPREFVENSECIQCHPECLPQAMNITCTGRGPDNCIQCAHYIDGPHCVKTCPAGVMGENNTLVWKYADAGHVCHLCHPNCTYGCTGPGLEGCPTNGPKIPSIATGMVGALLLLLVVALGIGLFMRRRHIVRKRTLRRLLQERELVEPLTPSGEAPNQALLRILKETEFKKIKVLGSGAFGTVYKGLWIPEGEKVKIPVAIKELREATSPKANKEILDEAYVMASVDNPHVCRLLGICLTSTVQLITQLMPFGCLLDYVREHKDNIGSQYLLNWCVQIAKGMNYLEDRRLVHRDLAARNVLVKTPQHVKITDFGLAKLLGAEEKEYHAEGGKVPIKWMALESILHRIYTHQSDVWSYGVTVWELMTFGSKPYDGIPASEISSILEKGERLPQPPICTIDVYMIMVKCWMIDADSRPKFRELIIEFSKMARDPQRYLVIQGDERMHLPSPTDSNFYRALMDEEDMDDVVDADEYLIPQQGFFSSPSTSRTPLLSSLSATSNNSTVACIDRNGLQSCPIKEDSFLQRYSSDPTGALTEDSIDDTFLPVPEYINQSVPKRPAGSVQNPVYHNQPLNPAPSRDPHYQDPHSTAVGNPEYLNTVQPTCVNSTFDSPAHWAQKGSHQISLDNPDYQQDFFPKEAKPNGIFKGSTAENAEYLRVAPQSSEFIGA

The term IC50 denotes the concentration that inhibits the measured activity by half. Take `Nc1ccc(-c2ccc3ncc4c(=O)[nH]c(=O)n(-c5cccc(C(F)(F)F)c5)c4c3n2)cn1` [Compound 5, 9-(6-aminopyridin-3-yl)-1-(3-(trifluoromethyl)phenyl)pyrimido[5,4-c][1,5]naphthyridine-2,4(1H,3H)-dione]: the inhibition at 10 µM in [1] was 11%; at Cannabinoid CB1, 25%; in [2], 1%; on Muscarinic M3, 13%; on Bradykinin B2, 24%; on Glucocorticoid it was -4%. Besides, the inhibition at 10 µM was 11% at Interleukin IL-1; 10% at Neuropeptide Y Y2; 2% at Opiate μ(OP3, MOP); 3% on Neuropeptide Y Y1; -5% in [4]. Besides, the IC50 against BRAF V600E is more than 10000 nM. The “inhibitory activity for the kinases listed in Table 3” value in assay [3] is “no inhibitory activity”.
